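All cell lines were grown in 96-well plates and treated with compound for 48 hours. GI50 marks 50% less growth. TGI marks complete inhibition of growth.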
Assays:
Assay in all cases: inhibition of tumour cell growth, NCI panel, 48 h
MDA-MB-435 = system: MDA-MB-435
UACC-257 melanoma = system: UACC-257 melanoma
DU-145 prostate = system: DU-145 prostate
NCI-H522 lung = system: NCI-H522 lung
NCI/ADR-RES ovarian = system: NCI/ADR-RES ovarian
HT29 colon = system: HT29 colon
ACHN renal = system: ACHN renal
A498 renal = system: A498 renal

COC(=O)[C@]12CC[C@@H](C)[C@H](C)[C@@H]1C1=CC[C@@H]3[C@@]4(C)C=C(O)C(=O)[C@@]5(C)COC(=C54)C[C@@]3(C)[C@]1(C)CC2
GI50 (MDA-MB-435): 6.12 µM | TGI (MDA-MB-435): 21.5 µM | GI50 (UACC-257 melanoma): 4.32 µM | TGI (UACC-257 melanoma): 18.8 µM | GI50 (DU-145 prostate): 11.7 µM | TGI (DU-145 prostate): 28.2 µM | GI50 (NCI-H522 lung): 2.57 µM | TGI (NCI-H522 lung): 9.17 µM | GI50 (NCI/ADR-RES ovarian): 14.3 µM | TGI (NCI/ADR-RES ovarian): 45.6 µM | GI50 (HT29 colon): 10.5 µM | TGI (HT29 colon): 25.9 µM | GI50 (ACHN renal): 11.7 µM | TGI (ACHN renal): 28.7 µM | GI50 (A498 renal): 15.2 µM | TGI (A498 renal): 32.5 µM

Cc1ccc2c(O)c(O)cc(NC(C)CCCN)c2n1 (centres undefined)
GI50 (MDA-MB-435): 19.4 µM | TGI (MDA-MB-435): 38.3 µM | GI50 (UACC-257 melanoma): 19.8 µM | TGI (UACC-257 melanoma): 54.5 µM | GI50 (DU-145 prostate): 10.5 µM | TGI (DU-145 prostate): 31.4 µM | GI50 (NCI-H522 lung): 3.15 µM | TGI (NCI-H522 lung): 9.87 µM | GI50 (NCI/ADR-RES ovarian): > 66.9 µM | TGI (NCI/ADR-RES ovarian): > 100 µM | GI50 (HT29 colon): 7.04 µM | TGI (HT29 colon): > 72.4 µM | GI50 (ACHN renal): > 100 µM | TGI (ACHN renal): > 100 µM | GI50 (A498 renal): > 100 µM | TGI (A498 renal): > 100 µM

COc1ccc2c(c1)C(c1ccccc1Cl)=Nc1c(n[nH]c1C)N2
GI50 (MDA-MB-435): > 25 µM | TGI (MDA-MB-435): > 25 µM | GI50 (UACC-257 melanoma): > 25 µM | TGI (UACC-257 melanoma): > 25 µM | GI50 (DU-145 prostate): > 25 µM | TGI (DU-145 prostate): > 25 µM | GI50 (NCI-H522 lung): > 20 µM | TGI (NCI-H522 lung): > 25 µM | GI50 (NCI/ADR-RES ovarian): > 25 µM | TGI (NCI/ADR-RES ovarian): > 25 µM | GI50 (HT29 colon): > 18.7 µM | TGI (HT29 colon): > 25 µM | GI50 (ACHN renal): > 20.5 µM | TGI (ACHN renal): > 25 µM | GI50 (A498 renal): 1.88 µM | TGI (A498 renal): > 25 µM

COc1cc(/C=C2\CN(C)C/C(=C\c3cc(CN4CCCCC4)c(O)c(OC)c3)C2=O)cc(CN2CCCCC2)c1O
GI50 (MDA-MB-435): 3.6 µM | TGI (MDA-MB-435): 13.2 µM | GI50 (UACC-257 melanoma): 7.99 µM | TGI (UACC-257 melanoma): 22 µM | GI50 (DU-145 prostate): 3.88 µM | TGI (DU-145 prostate): 13.7 µM | GI50 (NCI-H522 lung): 2.68 µM | TGI (NCI-H522 lung): 11.9 µM | GI50 (NCI/ADR-RES ovarian): 6.24 µM | TGI (NCI/ADR-RES ovarian): > 100 µM | GI50 (HT29 colon): 2.43 µM | TGI (HT29 colon): 6.42 µM | GI50 (ACHN renal): 3.95 µM | TGI (ACHN renal): 13.9 µM | GI50 (A498 renal): 10.1 µM | TGI (A498 renal): 22.7 µM

O=C(O)c1ccc(N/C=C2\C(=O)c3ccccc3OC2O)cc1O (centres undefined)
GI50 (MDA-MB-435): 20.2 µg/mL | TGI (MDA-MB-435): 68.4 µg/mL | GI50 (UACC-257 melanoma): 28.9 µg/mL | TGI (UACC-257 melanoma): 93.1 µg/mL | GI50 (DU-145 prostate): 22.7 µg/mL | TGI (DU-145 prostate): 65.6 µg/mL | GI50 (NCI-H522 lung): 28 µg/mL | TGI (NCI-H522 lung): 62.9 µg/mL | GI50 (NCI/ADR-RES ovarian): 22.3 µg/mL | TGI (NCI/ADR-RES ovarian): 78.6 µg/mL | GI50 (HT29 colon): 29.7 µg/mL | TGI (HT29 colon): 83.2 µg/mL | GI50 (ACHN renal): 29 µg/mL | TGI (ACHN renal): 84.6 µg/mL | GI50 (A498 renal): 36.9 µg/mL | TGI (A498 renal): 83.9 µg/mL

COc1cc(-c2nc3sc4c(c3c(=O)[nH]2)CCCCCC4)cc(OC)c1OC
GI50 (MDA-MB-435): 0.115 µM | TGI (MDA-MB-435): 0.611 µM | GI50 (UACC-257 melanoma): 3 µM | TGI (UACC-257 melanoma): > 33.2 µM | GI50 (DU-145 prostate): 1.78 µM | TGI (DU-145 prostate): > 33.2 µM | GI50 (NCI-H522 lung): 0.887 µM | TGI (NCI-H522 lung): 9.46 µM | GI50 (NCI/ADR-RES ovarian): 0.892 µM | TGI (NCI/ADR-RES ovarian): > 33.2 µM | GI50 (ACHN renal): 1.79 µM | TGI (ACHN renal): > 33.2 µM | GI50 (A498 renal): 0.694 µM | TGI (A498 renal): 3.17 µM

N#CC1=C(N)NC(=O)NC12Nc1ccccc1S2 (centres undefined)
GI50 (MDA-MB-435): 31.7 µM | TGI (MDA-MB-435): > 88.4 µM | GI50 (UACC-257 melanoma): 1.42 µM | GI50 (DU-145 prostate): 12.5 µM | TGI (DU-145 prostate): 35.3 µM | GI50 (NCI-H522 lung): 28.2 µM | TGI (NCI-H522 lung): > 71.4 µM | GI50 (NCI/ADR-RES ovarian): 24.7 µM | TGI (NCI/ADR-RES ovarian): > 68.8 µM | GI50 (HT29 colon): 36.7 µM | TGI (HT29 colon): > 100 µM | GI50 (ACHN renal): 32.2 µM | TGI (ACHN renal): > 100 µM | GI50 (A498 renal): 16.5 µM | TGI (A498 renal): 36.8 µM

O=C(Cc1cccc(OC(F)(F)F)c1)Nc1ccc(CCCCc2nnc(NC(=O)Cc3ccccn3)s2)nn1
GI50 (MDA-MB-435): 30.4 µM | TGI (MDA-MB-435): > 100 µM | GI50 (UACC-257 melanoma): 29.3 µM | TGI (UACC-257 melanoma): > 100 µM | GI50 (DU-145 prostate): 25.8 µM | TGI (DU-145 prostate): > 100 µM | GI50 (NCI-H522 lung): 12.2 µM | TGI (NCI-H522 lung): 40.1 µM | GI50 (NCI/ADR-RES ovarian): > 100 µM | TGI (NCI/ADR-RES ovarian): > 100 µM | GI50 (HT29 colon): 24.3 µM | TGI (HT29 colon): 96.7 µM | GI50 (ACHN renal): 20.9 µM | TGI (ACHN renal): > 100 µM

S=C1Nc2ccc(Cl)cc2C2(c3ccccc3)N3CCN=C3NN12 (centres undefined)
GI50 (MDA-MB-435): 43.2 µM | TGI (MDA-MB-435): > 100 µM | GI50 (UACC-257 melanoma): 37 µM | TGI (UACC-257 melanoma): > 100 µM | GI50 (DU-145 prostate): 40 µM | TGI (DU-145 prostate): > 100 µM | GI50 (NCI-H522 lung): 21.7 µM | TGI (NCI-H522 lung): 48.1 µM | GI50 (NCI/ADR-RES ovarian): 48.8 µM | TGI (NCI/ADR-RES ovarian): > 100 µM | GI50 (HT29 colon): 28.1 µM | TGI (HT29 colon): > 100 µM | GI50 (ACHN renal): 55.9 µM | TGI (ACHN renal): > 100 µM

CCN1c2ccccc2C(Cl)(c2ccc(N(C)C)cc2)c2ccccc21
GI50 (MDA-MB-435): 3.34 µM | TGI (MDA-MB-435): 14 µM | GI50 (DU-145 prostate): 5.5 µM | TGI (DU-145 prostate): 17.1 µM | GI50 (NCI/ADR-RES ovarian): 13.3 µM | TGI (NCI/ADR-RES ovarian): 44.6 µM | GI50 (HT29 colon): 2.88 µM | TGI (HT29 colon): 12.4 µM | GI50 (ACHN renal): 12.4 µM | TGI (ACHN renal): 28.4 µM | GI50 (A498 renal): 59.6 µM | TGI (A498 renal): > 100 µM

COc1ccc(/C=C\c2cc(OC)c(OC)c(OC)c2)cc1OC(=O)CCC(=O)O
TGI (MDA-MB-435): < 0.0001 µM | GI50 (UACC-257 melanoma): < 0.0001 µM | TGI (HT29 colon): 12.2 µM | TGI (ACHN renal): > 100 µM | GI50 (A498 renal): < 0.0001 µM

Cc1cc(=O)oc2cc(OCc3c(F)cccc3Cl)ccc12
TGI (MDA-MB-435): 3.5 µM | TGI (UACC-257 melanoma): > 100 µM | TGI (DU-145 prostate): > 100 µM | TGI (NCI-H522 lung): > 100 µM | TGI (ACHN renal): > 100 µM | TGI (A498 renal): > 100 µM

O=c1cc(-c2ccccc2)[nH]n1-c1nc2ccccc2[nH]1
GI50 (MDA-MB-435): 5.07 µM | TGI (MDA-MB-435): > 100 µM | GI50 (UACC-257 melanoma): 6.18 µM | TGI (UACC-257 melanoma): > 100 µM | GI50 (DU-145 prostate): 9.97 µM | TGI (DU-145 prostate): > 100 µM | GI50 (NCI-H522 lung): 3.65 µM | TGI (NCI-H522 lung): 17.6 µM | GI50 (NCI/ADR-RES ovarian): 3.68 µM | TGI (NCI/ADR-RES ovarian): > 100 µM | GI50 (ACHN renal): 4.36 µM | TGI (ACHN renal): > 100 µM | GI50 (A498 renal): 3.72 µM | TGI (A498 renal): 22.9 µM

CCOC(=O)/C=C/C(C(=O)/C=C/c1ccc(O)c(OC)c1)=C(O)\C=C\c1ccc(O)c(OC)c1
GI50 (MDA-MB-435): 3.29 µM | TGI (MDA-MB-435): 9.31 µM | GI50 (UACC-257 melanoma): 2.06 µM | TGI (UACC-257 melanoma): 4.9 µM | GI50 (DU-145 prostate): 4.43 µM | TGI (DU-145 prostate): 18.7 µM | GI50 (NCI-H522 lung): 4.51 µM | TGI (NCI-H522 lung): 36.4 µM | GI50 (NCI/ADR-RES ovarian): 2.13 µM | TGI (NCI/ADR-RES ovarian): 6.94 µM | GI50 (HT29 colon): 1.83 µM | TGI (HT29 colon): 6.6 µM | GI50 (ACHN renal): 2.36 µM | TGI (ACHN renal): 6.25 µM

Cc1c(C)[n+](=O)c(C)c(C)n1[O-]
GI50 (MDA-MB-435): > 100 µM | TGI (MDA-MB-435): > 100 µM | GI50 (UACC-257 melanoma): > 100 µM | TGI (UACC-257 melanoma): > 100 µM | GI50 (DU-145 prostate): > 100 µM | TGI (DU-145 prostate): > 100 µM | GI50 (NCI/ADR-RES ovarian): > 100 µM | TGI (NCI/ADR-RES ovarian): > 100 µM | GI50 (ACHN renal): > 100 µM | TGI (ACHN renal): > 100 µM | GI50 (A498 renal): > 100 µM | TGI (A498 renal): > 100 µM

CO[C@@H]1/C=C(C)/C=C/[C@@H](C)/C=C(\C)C(=O)OC(/C(C)=C/C=C(\C)CNC(=O)[C@H](CO)NC=O)[C@@H](C)/C=C/C=C/[C@H](OC)CC/C=C(C)/C=C/C1 (some centres undefined)
GI50 (MDA-MB-435): < 0.005 µM | TGI (MDA-MB-435): < 0.005 µM | GI50 (UACC-257 melanoma): 0.0238 µM | TGI (UACC-257 melanoma): 0.0365 µM | GI50 (DU-145 prostate): 0.169 µM | TGI (DU-145 prostate): 14.5 µM | GI50 (NCI-H522 lung): < 0.005 µM | TGI (NCI-H522 lung): 18.7 µM | GI50 (NCI/ADR-RES ovarian): 0.0587 µM | TGI (NCI/ADR-RES ovarian): 15.4 µM | GI50 (HT29 colon): < 0.005 µM | TGI (HT29 colon): > 50 µM | GI50 (ACHN renal): 0.00904 µM | TGI (ACHN renal): 0.187 µM
